Columns and labels:
Wistar rats = assay: Blood growth hormone (GH) over time after intraduodenal administration; type: in vivo
Description: Statistical processing was performed by using ANOVA and Fisher's test.
Male, 8 to 9-week Wistar rats were used.

ddY mice = assay: Small intestinal transit (Evans Blue mobility), gastrointestinal motility; type: in vivo; details: ddY mice fasted 18 hours, 30 minutes before test meal
Description: The symbol ** in the figure means a statistically significant difference (P<0.01) when comparing ornithine hydrochloride-administered group (3 g/kg) with control group, and the symbol in the figure means a statistically significant difference (P<0.001) when comparing ornithine hydrochloride-administered group (5 g/kg) with control group. Statistical processing was performed by using ANOVA and Fisher's test.
Gastrointestinal motility function was examined through small intestinal transit measurements according to the following testing method.
Male, 5 to 7-week ddY mice were used. […] After 30 minutes, the mice were orally administered with a dyed test meal (Evans Blue 5%, carboxymethyl cellulose 1%). The animals were killed by cervical dislocation after 5 minutes, and immediately cut open in the stomach to remove the whole small intestine. For evaluation of the gastrointestinal motility, the full length of the small intestine, and the length from the pylorus to the farthest point marked by the movement of Evans Blue were measured. Evans Blue mobility was calculated according to the following equation, and used as an index.
Mobility (%)=(the length from the pylorus to the farthest point marked by the movement of Evans Blue/the full length of small intestine)×100

Row | Compound | effect of the antagonist alone on blood GH (Wistar rats; D-Lys3-GHRP-6 0.8 mg/kg i.v. alone) | GH concentration increasing effect of ornithine in presence of ghrelin antagonist (Wistar rats; D-Lys3-GHRP-6 0.8 mg/kg i.v. plus ornithine hydrochloride 5 g/kg, vs ornithine hydrochloride alone, P<0.05 (FIG. 1)) | small intestinal transit compared to the control group (ddY mice; oral 3 g/kg (body weight), P<0.01 (FIG. 3)) | small intestinal transit compared to the control group (ddY mice; oral 5 g/kg (body weight), P<0.001 (FIG. 3))
1 | D-Lys3-GHRP-6 | does not show the effect | inhibited | – | –
2 | Cl.NCCC[C@H](N)C(=O)O [ornithine hydrochloride, L-ornithine hydrochloride] | – | – | significantly increased | significantly increased

— patent US20170281582A1, “ENHANCER FOR EATING ACTIVITY AND/OR GASTROINTESTINAL ACTIVITY” (KYOWA HAKKO BIO CO., LTD., priority 2012, published 2017)
